Reference: article PMC8185074, “Anchor extension: a structure-guided approach to design cyclic peptides targeting enzyme active sites” (Nature Communications, 2021)
Peptide text beside a SMILES is read from it.

What was measured:
HDAC3 = biological target: T1, HDAC3 (Homo sapiens, UniProt O15379); assay: HDAC3 inhibition, full IC50 measurement (Reaction Biology; fluorogenic p53 peptide RHKK(Ac)AMC); format: biochemical
T1 construct: purchased Reaction Biology Corporation (assay run by the CRO)
Description: The assay was performed using 50 μM fluorogenic peptide from p53 residues 379-382 [RHKK(Ac)AMC] in a base reaction buffer of 50 mM Tris-HCl at pH 8.0, 137 mM NaCl, 2.7 mM KCl, 1 mM MgCl2, and freshly added 1 mg/ml BSA and 1% DMSO. Peptides were first dissolved in DMSO and then added to the reaction mixture with the enzyme using acoustic technique, enough to reach the desired concentration for that assay point. Peptide concentrations were calculated based on mass of lyophilized peptide and its molecular weight. The substrate was then added and incubated for 1 hour at 30 °C in a sealed container. After the incubation, developer was added to stop the reaction and develop color. Kinetic measurements were then performed for 20 min with Envision with 5 min intervals (Ex/Em = 360/460 nm). The endpoint after plateau was taken for IC50 measurement.
In cases where duplicate measures are used, average data is reported in the main text or Supplementary Tables.

HDAC6 = biological target: T2, HDAC6 (Homo sapiens, UniProt Q9UBN7); assay: HDAC6 inhibition, full IC50 measurement (Reaction Biology; fluorogenic p53 peptide RHKK(Ac)AMC); format: biochemical
T2 construct: purchased Reaction Biology Corporation (assay run by the CRO)
T2 sequence (Q9UBN7 1-1215): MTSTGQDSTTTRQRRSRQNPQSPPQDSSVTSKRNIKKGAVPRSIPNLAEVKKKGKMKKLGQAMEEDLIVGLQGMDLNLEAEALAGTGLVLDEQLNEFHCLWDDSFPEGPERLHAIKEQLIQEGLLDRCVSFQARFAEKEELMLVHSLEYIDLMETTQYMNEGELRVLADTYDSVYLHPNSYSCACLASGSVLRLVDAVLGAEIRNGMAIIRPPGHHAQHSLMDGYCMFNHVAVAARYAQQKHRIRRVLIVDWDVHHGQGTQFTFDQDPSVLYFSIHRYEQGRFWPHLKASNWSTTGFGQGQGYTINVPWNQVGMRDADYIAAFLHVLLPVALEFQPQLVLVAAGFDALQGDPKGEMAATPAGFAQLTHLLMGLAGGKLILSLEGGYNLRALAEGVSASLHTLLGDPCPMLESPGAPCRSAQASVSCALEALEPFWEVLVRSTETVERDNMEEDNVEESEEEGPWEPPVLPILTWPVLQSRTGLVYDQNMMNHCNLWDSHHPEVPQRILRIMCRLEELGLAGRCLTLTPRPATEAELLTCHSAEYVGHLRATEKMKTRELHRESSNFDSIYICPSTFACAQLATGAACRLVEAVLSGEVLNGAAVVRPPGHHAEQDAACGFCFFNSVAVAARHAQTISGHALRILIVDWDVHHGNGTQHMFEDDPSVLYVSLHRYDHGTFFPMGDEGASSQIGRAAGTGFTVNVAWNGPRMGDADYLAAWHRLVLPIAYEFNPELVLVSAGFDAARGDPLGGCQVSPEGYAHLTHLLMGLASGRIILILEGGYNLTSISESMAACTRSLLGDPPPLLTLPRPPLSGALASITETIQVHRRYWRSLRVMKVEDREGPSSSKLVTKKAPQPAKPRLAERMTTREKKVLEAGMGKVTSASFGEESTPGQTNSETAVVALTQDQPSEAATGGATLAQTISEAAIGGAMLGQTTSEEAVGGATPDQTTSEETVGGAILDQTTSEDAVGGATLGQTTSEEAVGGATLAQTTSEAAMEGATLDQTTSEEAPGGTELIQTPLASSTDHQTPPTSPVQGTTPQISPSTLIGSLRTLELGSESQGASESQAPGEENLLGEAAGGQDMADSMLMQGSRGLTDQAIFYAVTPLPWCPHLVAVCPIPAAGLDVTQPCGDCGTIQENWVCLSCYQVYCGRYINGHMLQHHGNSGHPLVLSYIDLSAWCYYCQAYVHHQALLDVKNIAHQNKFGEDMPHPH
Method in brief: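 Reaction: enzyme plus acoustically dispensed peptide inhibitor, 50 μM RHKK(Ac)AMC substrate, pH 8.0 Tris buffer with BSA and 1% DMSO, 1 h, 30 °C. Duplicates averaged.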

T1 sequence (O15379 whole entry): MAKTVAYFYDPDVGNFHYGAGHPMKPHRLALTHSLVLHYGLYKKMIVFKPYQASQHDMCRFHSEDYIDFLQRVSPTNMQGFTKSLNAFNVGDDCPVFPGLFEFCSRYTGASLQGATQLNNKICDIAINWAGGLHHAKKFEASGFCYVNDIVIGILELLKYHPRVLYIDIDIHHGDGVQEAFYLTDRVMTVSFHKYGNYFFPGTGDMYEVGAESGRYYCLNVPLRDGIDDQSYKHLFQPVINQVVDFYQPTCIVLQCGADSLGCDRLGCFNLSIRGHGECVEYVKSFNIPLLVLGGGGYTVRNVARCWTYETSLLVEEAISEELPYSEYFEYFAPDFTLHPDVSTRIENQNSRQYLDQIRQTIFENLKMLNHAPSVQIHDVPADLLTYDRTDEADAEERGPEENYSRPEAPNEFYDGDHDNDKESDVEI
T1 sequence (Q9Y618 395-489 partner limits assumed): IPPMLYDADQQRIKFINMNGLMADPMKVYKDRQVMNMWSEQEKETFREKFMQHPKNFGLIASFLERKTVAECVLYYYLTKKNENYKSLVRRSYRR

| Compound | HDAC3 activity raw data (signal) (HDAC3; Conc. 1.00E-05 M, t1) | HDAC3 activity raw data (signal) (HDAC3; Conc. 1.00E-05 M, t2) | HDAC3 activity raw data (signal) (HDAC3; Conc. 1.11E-06 M, t1) | HDAC3 activity raw data (signal) (HDAC3; Conc. 1.11E-06 M, t2) | HDAC3 activity raw data (signal) (HDAC3; Conc. 1.23E-07 M, t1) | HDAC3 activity raw data (signal) (HDAC3; Conc. 1.23E-07 M, t2) | HDAC3 activity raw data (signal) (HDAC3; Conc. 1.37E-08 M, t1) | HDAC3 activity raw data (signal) (HDAC3; Conc. 1.37E-08 M, t2) | HDAC3 activity raw data (signal) (HDAC3; Conc. 1.52E-09 M, t1) | HDAC3 activity raw data (signal) (HDAC3; Conc. 1.52E-09 M, t2) | HDAC3 activity raw data (signal) (HDAC3; Conc. 3.33E-06 M, t1) | HDAC3 activity raw data (signal) (HDAC3; Conc. 3.33E-06 M, t2) | HDAC3 activity raw data (signal) (HDAC3; Conc. 3.70E-07 M, t1) | HDAC3 activity raw data (signal) (HDAC3; Conc. 3.70E-07 M, t2) | HDAC3 activity raw data (signal) (HDAC3; Conc. 4.12E-08 M, t1) | HDAC3 activity raw data (signal) (HDAC3; Conc. 4.12E-08 M, t2) | HDAC3 activity raw data (signal) (HDAC3; Conc. 4.57E-09 M, t1) | HDAC3 activity raw data (signal) (HDAC3; Conc. 4.57E-09 M, t2) | HDAC3 activity raw data (signal) (HDAC3; Conc. 5.08E-10 M, t1) | HDAC3 activity raw data (signal) (HDAC3; Conc. 5.08E-10 M, t2) | further results |
| --- | --- | --- | --- | --- | --- | --- | --- | --- | --- | --- | --- | --- | --- | --- | --- | --- | --- | --- | --- | --- | --- |
| CSCC[C@H]1NC(=O)[C@@H](CO)NC(=O)[C@H](CC(N)=O)NC(=O)[C@H](CC(=O)O)NC(=O)[C@@H]([C@H](C)O)NC(=O)[C@H](Cc2c[nH]c3ccccc23)NC(=O)[C@H](CCCCCS)NC(=O)[C@H](CCCCN)NC(=O)[C@@H](CC(=O)O)NC1=O [des2.1.1, SHA-Trp-dThr-Asp-Asn-dSer-dMet-dAsp-Lys] (HELM PEPTIDE1{D.N.[dS].[dM].[dD].K.[O=C([C@H](CCCCCS)N[*:1])[*:2]].W.[dT]}$PEPTIDE1,PEPTIDE1,1:R1-9:R2$$$V2.0) | 7144 | 5841 | 51390 | 54678 | 246556 | 273031 | 687389 | 738917 | 1292643 | 1253696 | 22832 | 23560 | 127387 | 114572 | 487885 | 457810 | 1034207 | 1052923 | 1393662 | 1455609 | HDAC6 activity raw data (signal) (HDAC6; Conc. 1.00E-05 M, t1): -77; HDAC6 activity raw data (signal) (HDAC6; Conc. 1.00E-05 M, t2): -1621; HDAC6 activity raw data (signal) (HDAC6; Conc. 1.11E-06 M, t1): 12750; HDAC6 activity raw data (signal) (HDAC6; Conc. 1.11E-06 M, t2): 10889; HDAC6 activity raw data (signal) (HDAC6; Conc. 1.23E-07 M, t1): 59972; HDAC6 activity raw data (signal) (HDAC6; Conc. 1.23E-07 M, t2): 56137; HDAC6 activity raw data (signal) (HDAC6; Conc. 1.37E-08 M, t1): 194975; HDAC6 activity raw data (signal) (HDAC6; Conc. 1.37E-08 M, t2): 185826; HDAC6 activity raw data (signal) (HDAC6; Conc. 1.52E-09 M, t1): 455139; HDAC6 activity raw data (signal) (HDAC6; Conc. 1.52E-09 M, t2): 435218; HDAC6 activity raw data (signal) (HDAC6; Conc. 3.33E-06 M, t1): 6654; HDAC6 activity raw data (signal) (HDAC6; Conc. 3.33E-06 M, t2): 2213; HDAC6 activity raw data (signal) (HDAC6; Conc. 3.70E-07 M, t1): 27729; HDAC6 activity raw data (signal) (HDAC6; Conc. 3.70E-07 M, t2): 16335; HDAC6 activity raw data (signal) (HDAC6; Conc. 4.12E-08 M, t1): 104749; HDAC6 activity raw data (signal) (HDAC6; Conc. 4.12E-08 M, t2): 101798; HDAC6 activity raw data (signal) (HDAC6; Conc. 4.57E-09 M, t1): 322592; HDAC6 activity raw data (signal) (HDAC6; Conc. 4.57E-09 M, t2): 306483; HDAC6 activity raw data (signal) (HDAC6; Conc. 5.08E-10 M, t1): 505663; HDAC6 activity raw data (signal) (HDAC6; Conc. 5.08E-10 M, t2): 482059 |
| CC(C)C[C@H]1NC(=O)[C@H](Cc2c[nH]c3ccccc23)NC(=O)[C@H](CCCCCS)NC(=O)[C@@H](Cc2ccc(O)cc2)NC(=O)[C@@H](C(C)C)NC(=O)[C@H](Cc2c[nH]cn2)NC(=O)CNC(=O)CNC(=O)[C@@H](CO)NC1=O [des2.2.0, SHA-Trp-dLeu-dSer-Gly-Gly-His-dVal-dTyr] (HELM PEPTIDE1{G.G.H.[dV].[dY].[O=C([C@H](CCCCCS)N[*:1])[*:2]].W.[dL].[dS]}$PEPTIDE1,PEPTIDE1,1:R1-9:R2$$$V2.0) | 556301 | 606764 | 913376 | 1016072 | 993017 | 1391457 | 1020645 | 1085089 | 1012899 | 1059045 | 841514 | 795799 | 980314 | 1161998 | 1033280 | 1094012 | 1032533 | 1050723 | 965053 | 1022182 | HDAC6 activity raw data (signal) (HDAC6; Conc. 1.00E-05 M, t1): 16305; HDAC6 activity raw data (signal) (HDAC6; Conc. 1.00E-05 M, t2): 24452; HDAC6 activity raw data (signal) (HDAC6; Conc. 1.11E-06 M, t1): 83235; HDAC6 activity raw data (signal) (HDAC6; Conc. 1.11E-06 M, t2): 80880; HDAC6 activity raw data (signal) (HDAC6; Conc. 1.23E-07 M, t1): 144589; HDAC6 activity raw data (signal) (HDAC6; Conc. 1.23E-07 M, t2): 161069; HDAC6 activity raw data (signal) (HDAC6; Conc. 1.37E-08 M, t1): 141422; HDAC6 activity raw data (signal) (HDAC6; Conc. 1.37E-08 M, t2): 164330; HDAC6 activity raw data (signal) (HDAC6; Conc. 1.52E-09 M, t1): 132716; HDAC6 activity raw data (signal) (HDAC6; Conc. 1.52E-09 M, t2): 164682; HDAC6 activity raw data (signal) (HDAC6; Conc. 3.33E-06 M, t1): 43855; HDAC6 activity raw data (signal) (HDAC6; Conc. 3.33E-06 M, t2): 31435; HDAC6 activity raw data (signal) (HDAC6; Conc. 3.70E-07 M, t1): 128192; HDAC6 activity raw data (signal) (HDAC6; Conc. 3.70E-07 M, t2): 121991; HDAC6 activity raw data (signal) (HDAC6; Conc. 4.12E-08 M, t1): 140481; HDAC6 activity raw data (signal) (HDAC6; Conc. 4.12E-08 M, t2): 177888; HDAC6 activity raw data (signal) (HDAC6; Conc. 4.57E-09 M, t1): 138901; HDAC6 activity raw data (signal) (HDAC6; Conc. 4.57E-09 M, t2): 160834; HDAC6 activity raw data (signal) (HDAC6; Conc. 5.08E-10 M, t1): 128639; HDAC6 activity raw data (signal) (HDAC6; Conc. 5.08E-10 M, t2): 162548 |
